From patent US20100190778A1, “3,4-DIHYDROBENZO[1,2,3]THIADIAZINE-1,1-DIOXIDE DERIVATIVES, PROCESS FOR PREPARATION THEREOF, MEDICAMENTS CONTAINING SAID DERIVATIVES AND THEIR USE” (EGIS GYOGYSZERGYAR NYILVANOSAN MUKODO RESZVENTARSASAG, priority 2006, published 2010)

Key:
[1] = system: male Sprague-Dawley rats; test: elevated maze test in the rat (anxiolytic effect); assay type: in vivo; conditions: per os, 60-min pretreatment, 5-min measurement, MED regarding time spent in the open arms and number of entries into the open arms
Experimental: Pharmacological activity of the compounds of the general Formula (I) has been evaluated in elevated maze test in the rat.
The tests were carried out according to the method of S. Fellow and coworkers (J. Neurosci. Methods. 1985, 14, 149-167). During the test, a wooden-floor cross elevated by 50 cm from the ground was used. The length and the width of the arms of the cross were 100 and 15 cm, respectively. Two opposite arms of the cross are fitted at the ends and both sides with black plexiglass wall of 40 cm height (closed arms). The central section of the cross measuring 15 by 15 cm is open. The other two opposite arms of the cross are not provided with walls (open arms).
The tests were carried out in male Sprague-Dawley rats weighing 200 to 220 g. After the 60-min pretreatment time (per os treatment), animals were placed in the center of the maze. During the 5-min measurement time, four variables were recorded: the time spent in the open arms; the time spent in the closed arms; the number of entries into the open arms; the number of entries into the closed arms.
Animals normally avoid the open and light parts of the maze, thereby spending little time therein only. The anxiolytic effect of the compounds of the general Formula (I) is indicated by the increase in the time spent (in seconds) in the open arms and/or by the increase in the number of the entries into the open compartments of the maze. The minimum effective dose (MED) was determined for each tested compounds regarding the time spent in the open arms and the number of entries into the open arms. During the test, the known anxiolytic compound I-methyl-5-phenyl-7-chloro-1,3-dihydro-2H-1,4-benzodiazepin-2-one (INN: diazepam) of the Formula (IV)
was used. Treatment of the animals was carried out orally with the doses 0.1, 0.3, 1.0, 3.0 for diazepam and 0.01, 0.1, 1.0 mg/kg for the compounds of the general Formula (I).

SMILES	MED (minimum effective dose), anxiolytic effect in elevated maze test [1] [mg/kg p.o.]	melting point [°C]
CN1C(=O)CN=C(c2ccccc2)c2cc(Cl)ccc21 [Diazepam, I-methyl-5-phenyl-7-chloro-1,3-dihydro-2H-1,4-benzodiazepin-2-one, reference compound]	1.00	
CC1NNS(=O)(=O)c2cc(Cl)ccc21 (stereo not shown) [Example 1, 7-chloro-4-methyl-3,4-dihydrobenzo[1,2,3]thiadiazine-1,1-dioxide]	0.3	155 to 156
CCC1NNS(=O)(=O)c2cc(Cl)ccc21 (stereo not shown) [Example 2, 4-Ethyl-7-chloro-3,4-dihydrobenzo[1,2,3]thiadiazine-1,1-dioxide]		128 to 130
CC1NNS(=O)(=O)c2c1ccc(Cl)c2Cl (stereo not shown) [Example 3, 7,8-Dichloro-4-methyl-3,4-dihydrobenzo[1,2,3]thiadiazine-1,1-dioxide]	0.01	261 to 263
CCC1NNS(=O)(=O)c2c1ccc(Cl)c2Cl (stereo not shown) [Example 4, 7,8-Dichloro-4-ethyl-3,4-dihydrobenzo[1,2,3]thiadiazine-1,1-dioxide]		222 to 224
Cc1cc(Cl)c(Cl)c2c1C(C)NNS2(=O)=O (stereo not shown) [Example 5, 7,8-Dichloro-4,5-dimethyl-3,4-dihydrobenzo[1,2,3]thiadiazine-1,1-dioxide]	0.01	197 to 199
Cc1cc2c(c(Cl)c1Cl)S(=O)(=O)NNC2C (stereo not shown) [Example 6, 7,8-Dichloro-4,6-dimethyl-3,4-dihydrobenzo[1,2,3]thiadiazine-1,1-dioxide]		253 to 254
CC1NNS(=O)(=O)c2c(Cl)cccc21 (stereo not shown) [Example 7, 8-chloro-4-methyl-3,4-dihydrobenzo[1,2,3]thiadiazine-1,1-dioxide]		202 to 203
CC1NNS(=O)(=O)c2ccccc21 (stereo not shown) [Example 8, 4-Methyl-3,4-dihydrobenzo[1,2,3]thiadiazine-1,1-dioxide]		150 to 152
COc1ccc2c(c1Cl)S(=O)(=O)NNC2C (stereo not shown) [Example 9, 8-chloro-4-methyl-7-methoxy-3,4-dihydrobenzo[1,2,3]thiadiazine-1,1-dioxide]		231 to 233
COc1ccc2c(c1OC)S(=O)(=O)NNC2C (stereo not shown) [Example 10, 7,8-Dimethoxy-4-methyl-3,4-dihydrobenzo[1,2,3]thiadiazine-1,1-dioxide]		211 to 213
COc1cccc2c1S(=O)(=O)NNC2C (stereo not shown) [Example 11, 4-Methyl-8-methoxy-3,4-dihydrobenzo[1,2,3]thiadiazine-1,1-dioxide]		231 to 233
COc1ccc2c(c1)CNNS2(=O)=O [Example 13, 6-Methoxy-3,4-dihydrobenzo[1,2,3]thiadiazine-1,1-dioxide]		181 to 182
O=S1(=O)NNCc2ccccc21 [Example 14, 3,4-Dihydrobenzo[1,2,3]thiadiazine-1,1-dioxide]		134 to 136
COc1ccc2c(c1Cl)S(=O)(=O)NNC2 [Example 15, 8-chloro-7-methoxy-3,4-dihydrobenzo[1,2,3]thiadiazine-1,1-dioxide]		209 to 210
CC1NN(C)S(=O)(=O)c2c1ccc(Cl)c2Cl (stereo not shown) [Example 16, 7,8-Dichloro-2,4-dimethyl-3,4-dihydrobenzo[1,2,3]thiadiazine-1,1-dioxide]	0.01	134 to 135
CCC1NN(C)S(=O)(=O)c2c1ccc(Cl)c2Cl (stereo not shown) [Example 17, 7,8-Dichloro-4-ethyl-2-methyl-3,4-dihydrobenzo[1,2,3]thiadiazine-1,1-dioxide]		139 to 141
Cc1cc(Cl)c(Cl)c2c1C(C)NN(C)S2(=O)=O (stereo not shown) [Example 18, 7,8-Dichloro-2,4,5-trimethyl-3,4-dihydrobenzo[1,2,3]thiadiazine-1,1-dioxide]		101 to 102
COc1ccc2c(c1Cl)S(=O)(=O)N(C)NC2C (stereo not shown) [Example 19, 2,4-Dimethyl-8-chloro-7-methoxy-3,4-dihydrobenzo[1,2,3]thiadiazine-1,1-dioxide]		141 to 143
CCN1NC(C)c2ccc(Cl)c(Cl)c2S1(=O)=O (stereo not shown) [Example 21, 7,8-Dichloro-2-ethyl-4-methyl-3,4-dihydrobenzo[1,2,3]thiadiazine-1,1-dioxide]		135 to 136
CCC1NN(CC)S(=O)(=O)c2c1ccc(Cl)c2Cl (stereo not shown) [Example 22, 2,4-Diethyl-7,8-dichloro-3,4-dihydrobenzo[1,2,3]thiadiazine-1,1-dioxide]		118 to 120

SMILES	MED (minimum effective dose), anxiolytic effect in elevated maze test [1] [mg/kg p.o.]	melting point [°C]
CC1NN(C)S(=O)(=O)c2c(Cl)cccc21 (stereo not shown) [Example 23, 2,4-Dimethyl-8-chloro-3,4-dihydrobenzo[1,2,3]thiadiazine-1,1-dioxide]		128 to 130
CCN1NC(C)c2cccc(Cl)c2S1(=O)=O (stereo not shown) [Example 24, 2-Ethyl-8-chloro-4-methyl-3,4-dihydrobenzo[1,2,3]thiadiazine-1,1-dioxide]		79 to 80
Cc1cc2c(c(Cl)c1Cl)S(=O)(=O)N(C)NC2C (stereo not shown) [Example 25, 7,8-Dichloro-2,4,6-trimethyl-3,4-dihydrobenzo[1,2,3]thiadiazine-1,1-dioxide]		141 to 142
CC1c2ccc(Cl)c(Cl)c2S(=O)(=O)NN1C (stereo not shown) [Example 26, 7,8-Dichloro-3,4-dimethyl-3,4-dihydrobenzo[1,2,3]thiadiazine-1,1-dioxide]		194 to 195
CCN1NS(=O)(=O)c2c(ccc(Cl)c2Cl)C1C (stereo not shown) [Example 27, 7,8-Dichloro-3-ethyl-4-methyl-3,4-dihydrobenzo[1,2,3]thiadiazine-1,1-dioxide]		172 to 174
CCCN1NS(=O)(=O)c2c(ccc(Cl)c2Cl)C1C (stereo not shown) [Example 28, 7,8-Dichloro-4-methyl-3-propyl-3,4-dihydrobenzo[1,2,3]thiadiazine-1,1-dioxide]		164 to 165
CCC1c2ccc(Cl)cc2S(=O)(=O)NN1CC (stereo not shown) [Example 29, 3,4-Diethyl-7-chloro-3,4-dihydrobenzo[1,2,3]thiadiazine-1,1-dioxide]		109 to 111
CCC1c2ccc(Cl)cc2S(=O)(=O)NN1C(C)C (stereo not shown) [Example 30, 4-Ethyl-3-isopropyl-7-chloro-3,4-dihydrobenzo[1,2,3]thia diazine-1,1-dioxide]		99 to 101
Cc1cc(Cl)c(Cl)c2c1C(C)N(C)NS2(=O)=O (stereo not shown) [Example 31, 7,8-Dichloro-3,4,5-trimethyl-3,4-dihydrobenzo[1,2,3]thiadiazine-1,1-dioxide]		236 to 238
CN1Cc2ccccc2S(=O)(=O)N1 [Example 32, 3-Methyl-3,4-dihydrobenzo[1,2,3]thiadiazine-1,1-dioxide]		176 to 178
CCN1Cc2ccccc2S(=O)(=O)N1 [Example 33, 3-Ethyl-3,4-dihydrobenzo[1,2,3]thiadiazine-1,1-dioxide]		146 to 147
COc1ccc2c(c1)CN(C)NS2(=O)=O [Example 34, 3-Methyl-6-methoxy-3,4-dihydrobenzo[1,2,3]thiadiazine-1,1-dioxide]		186 to 187
CCN1Cc2cc(OC)ccc2S(=O)(=O)N1 [Example 35, 3-Ethyl-6-methoxy-3,4-dihydrobenzo[1,2,3]thiadiazine-1,1-dioxide]		180 to 181
CN1Cc2ccc(Cl)c(Cl)c2S(=O)(=O)N1 [Example 36, 7,8-Dichloro-3-methyl-3,4-dihydrobenzo[1,2,3]thiadiazine-1,1-dioxide]		189 to 190
CN1Cc2ccc(Cl)cc2S(=O)(=O)N1 [Example 37, 7-chloro-3-methyl-3,4-dihydrobenzo[1,2,3]thiadiazine-1,1-dioxide]		188 to 189
Cc1cc(Cl)c(Cl)c2c1C(C)N(C(C)C)NS2(=O)=O (stereo not shown) [Example 38, 7,8-Dichloro-4,5-dimethyl-3-isopropyl-3,4-dihydrobenzo[1,2,3]thiadiazine-1,1-dioxide]		167 to 168
COc1ccc2c(c1)CN(C)N(C)S2(=O)=O [Example 39, 2,3-Dimethyl-6-methoxy-3,4-dihydrobenzo[1,2,3]thiadiazine-1,1-dioxide]		142 to 143
CCN1Cc2cc(OC)ccc2S(=O)(=O)N1C [Example 40, 3-Ethyl-2-methyl-6-methoxy-3,4-dihydrobenzo[1,2,3]thiadiazine-1,1-dioxide]		123 to 125
CN1Cc2ccccc2S(=O)(=O)N1C [Example 41, 2,3-Dimethyl-3,4-dihydrobenzo[1,2,3]thiadiazine-1,1-dioxide]		143 to 145
CCN1Cc2ccccc2S(=O)(=O)N1C [Example 42, 3-Ethyl-2-methyl-3,4-dihydrobenzo[1,2,3]thiadiazine-1,1-dioxide]		140 to 142
CC1c2ccc(Cl)c(Cl)c2S(=O)(=O)N(C)N1C (stereo not shown) [Example 43, 7,8-Dichloro-2,3,4-trimethyl-3,4-dihydrobenzo[1,2,3]thiadiazine-1,1-dioxide]		135 to 136
